# Data published in patent US20160310463A1, “LIQUID STATIN FORMULATION” (priority 2009, published 2016).
# Where a name gives a salt, the structure may show the parent alone. Read-outs that look alike come from different tables or passages of the source.
# Tests used:
# [1] = adults; estimate for the five statins together; cited from earlier work
# [2] = test system: adrenocortical and testicular steroidogenesis; details: males age 18-50 years, long-term therapy, cited from earlier work
# [3] = test system: HeFH children and adolescents; details: 5 mg and 10 mg pravastatin; cited from earlier work
# children and adolescents = details: cited from earlier work
# [4] = test system: adrenal and gonadal steroidogenesis; details: humans, up to 80 mg/day, basal conditions; cited from earlier work
# [5] = test system: testicular endocrine function; details: dogs, very high doses; cited from earlier work
# [6] = cited from earlier work
# [7] = pH of 7.0; cited from earlier work
# pediatric HeFH patients = details: cited from earlier work
# children with HeFH [8] = details: cited from earlier work
# children with HeFH [9] = test: Dirisamer et al.: low-dose simvastatin in children with HeFH; type: in vivo, human
# Protocol: If the range of LDL-C of 150-170 mg/dl was not reached within the first 8 weeks, the daily dosage was increased stepwise up to 20 mg. The cut-off level for LDL-C<170 mg/dl (range 150-170 mg/dl) was determined according to the high mean concentrations of LDL-C of the study population.
# [10] = test system: children younger than 17 years of age with hyperlipidemia; details: mean dosage 16 mg once daily, cited from earlier work
# [11] = Simvastatin solubility screening, visual observation; type: physicochemical; details: for Visual Appearance: 23° C.
# Protocol: The study was performed by visual observation of the samples at various time points followed by chemical testing of the centrifuged supernatant. Ten vehicles chosen for the solubility screen are referenced in Table 2 below. One (1 g) of each vehicle was dispensed into an Eppendorf tube. […] Samples not visually soluble, after about 21 hours, were heated to 60° C. while being mixed for 1 hour. Samples were allowed to reach room temperature, and visual observations were recorded. All samples were centrifuged for 10 minutes at 10,000 RPM.
molecule,measurement,setting,value
"CC[C@H](C)C(=O)O[C@H]1C[C@H](O)C=C2C=C[C@H](C)[C@H](CC[C@@H](O)C[C@@H](O)CC(=O)O)[C@H]21 [Pravastatin, (bR,dR,1S,2S,6S,8S,8aR)-1,2,6,7,8,8a-Hexahydro-b,d,6-trihydroxy-2-methyl-8-[(2S)-2-methyl-1-oxobutoxy]-1-naphthaleneheptanoic acid monosodium salt]",occurrence of rhabdomyolysis,[1],3 per 100 000 person-years
same,interference with adrenal and testicular steroidogenesis,[2]; maximum stimulation,did not interfere
same,serum testosterone levels,[2],remained unchanged
same,average decrease in LDL-C concentration,[3],23%
"CC[C@H](C)C(=O)O[C@H]1C[C@@H](C)C=C2C=C[C@H](C)[C@H](CC[C@@H]3C[C@@H](O)CC(=O)O3)[C@H]21 [Lovastatin, (1S,3R,7S,8S,8aR)-8-{2-[(2R,4R)-4-hydroxy-6-oxooxan-2-yl]ethyl}-3,7-dimethyl-1,2,3,7,8,8a-hexahydronaphthalen-1-yl (2S)-2-methylbutanoate]",occurrence of rhabdomyolysis,[1],3 per 100 000 person-years
same,LDL-C reduction,children and adolescents; 10 mg lovastatin,21%
same,LDL-C reduction,children and adolescents; 20 mg lovastatin,24%
same,share of the mean LDL-C reduction of the highest dose of 40 reached by the lowest dose (10 mg/day),children and adolescents; in vivo,more than 50%
same,effect on adrenal and gonadal steroidogenesis,[4],no effect
same,effect on testicular endocrine function,[5],reduction in testicular endocrine function
"[R.,S.-(E)]-(±)-7-[3-(4-fluorophenyl)-1-(1-methylethyl)-1H-indol-2-yl]-3,5-dihydroxy-6-heptenoic acid, monosodium salt [Fluvastatin]",occurrence of rhabdomyolysis,[1],3 per 100 000 person-years
"CC(C)c1nc(N(C)S(C)(=O)=O)nc(-c2ccc(F)cc2)c1/C=C/C(O)C[C@@H](O)CC(=O)O (stereo in doubt) [Rosuvastatin calcium, bis[(E)-7-[4-(4-fluorophenyl)-6-isopropyl-2-[methyl(methylsulfonyl)amino]pyrimidin-5-yl](3R,5S)-3,5-dihydroxyhept-6-enoic acid] calcium salt]",solubility,[6]; in ethanol,slightly soluble
same,solubility,[6]; in water and methanol,sparingly soluble
same,partition coefficient (octanol/water),[7],0.13
"CCC(C)(C)C(=O)O[C@@H]1C[C@H](C)C=C2C=C[C@@H](C)[C@@H](CC[C@@H]3C[C@H](O)CC(=O)O3)[C@@H]21 (relative stereo) [Simvastatin, butanoic acid, 2,2-dimethyl-,1,2,3,7,8,8a-hexahydro-3,7-dimethyl-8-[2-(tetrahydro-4-hydroxy-6-oxo-2H-pyran-2-yl)-ethyl]-1-naphthalenyl ester, [1S-[1α,3α,7β,8β(2S*,4S*),-8aβ]]]","change in total-C, LDL-C and ApoB compared with placebo",pediatric HeFH patients; at 24 weeks,significant (P<0.001) reductions
same,change in HDL-C and ApoA1,pediatric HeFH patients; only significant relative to placebo at week 24 (P<0.05),increased for all weeks
same,results from the extension at 48 weeks,pediatric HeFH patients; simvastatin 40 mg,comparable to those observed in the base study
same,change in triglycerides,"pediatric HeFH patients; weeks 8, 16, and 48",Significant reductions
same,patients reaching the recommended therapeutic level (LDL-C<170 mg/dl) within the first period,"children with HeFH [8]; 5 mg simvastatin daily, nine patients started with 5 mg",four
same,percentage decrease in LDL-C concentration,children with HeFH [8]; 5 mg simvastatin period,25%
same,percentage decrease in total cholesterol,children with HeFH [8]; 5 mg simvastatin period,19%
same,patients reaching the recommended therapeutic level within the first period,"children with HeFH [8]; 10 mg simvastatin daily, 11 patients started with 10 mg",Six
same,percentage decrease in LDL-C concentration,children with HeFH [8]; 10 mg simvastatin period,30%
same,percentage decrease in total cholesterol,children with HeFH [8]; 10 mg simvastatin period,26%
same,percentage decrease in LDL-C concentration,children with HeFH [8]; 20 mg simvastatin period,36%
same,percentage decrease in total cholesterol,children with HeFH [8]; 20 mg simvastatin period,29%
same,side effects that could be related to simvastatin,"children with HeFH [8]; 5, 10 and 20 mg dosage periods",few and equally distributed among the three dosage periods
same,"subjects with abnormal levels of routine safety parameters (CK, ALAT, GGT)",children with HeFH [8]; group of 20 girls and boys,three
same,higher LDL-C reduction compared with other statins tested in young HeFH patients,children with HeFH [9]; 5 mg and 10 mg simvastatin period,~10%
same,share of the mean LDL-C reduction of the highest dose (20 mg/day) reached by the lowest dose (5 mg/day),children with HeFH [9]; in vivo,more than 70%
same,fall of circulating LDL-C at week 104,[10]; in 1 patient,15-20%
same,fall of circulating LDL-C at week 104,[10]; in 7 patients,40-60%
same,fall of circulating LDL-C at week 104,[10]; in 8 patients,20-40%
same,Visual Appearance,"[11]; 2.5 mg in 1 g 5% SLS in Water, 30 Min to ~21 Hrs",Clear colorless liquid w/ air bubbles
same,Visual Appearance,"[11]; 2.5 mg in 1 g Captex 500 P, 30 Min to ~21 Hrs",Clear colorless liquid
same,Visual Appearance after Application of Heat (60° C.) for 1 Hour and Cooled to Room Temperature,[11]; 2.5 mg in 1 g E. Pure Water,Hazy liquid w/ white powder and air bubbles
same,Visual Appearance,"[11]; 2.5 mg in 1 g E. Pure Water, 30 Min to ~21 Hrs",Cloudy liquid w/ white powder
same,Visual Appearance after Application of Heat (60° C.) for 1 Hour and Cooled to Room Temperature,[11]; 2.5 mg in 1 g Glycerine,Slightly hazy liquid w/ some white powder
same,Visual Appearance,"[11]; 2.5 mg in 1 g Glycerine, Initial to ~21 Hrs","Stiff clear, colorless liquid w/ white powder"
same,Visual Appearance,"[11]; 2.5 mg in 1 g Labrafil M 2125 CS, merged cell, Initial to about 2 Hrs",Yellow liquid w/ white powder
same,Visual Appearance,"[11]; 2.5 mg in 1 g Labrasol, 30 Min to ~21 Hrs",Pale yellow liquid
same,Visual Appearance,"[11]; 2.5 mg in 1 g PEG 400, 30 Min to ~21 Hrs",Clear colorless liquid
same,Visual Appearance after Application of Heat (60° C.) for 1 Hour and Cooled to Room Temperature,[11]; 2.5 mg in 1 g Polysorbate 80,Clear yellow liquid w/ some white residue
same,Visual Appearance,"[11]; 2.5 mg in 1 g Polysorbate 80, Initial to ~21 Hrs",Yellow liquid w/ white powder
same,Visual Appearance,"[11]; 2.5 mg in 1 g Propylene Glycol, 30 Min to ~21 Hrs",Clear colorless liquid
COCc1c(C(C)C)nc(C(C)C)c(/C=C/[C@@H](O)C[C@@H](O)CC(=O)O)c1-c1ccc(F)cc1 [Cerivastatin sodium],solubility,[6]; in acetone,very slightly soluble
same,solubility,"[6]; in water, methanol, and ethanol",soluble
"CC(C)c1c(C(=O)Nc2ccccc2)c(-c2ccccc2)c(-c2ccc(F)cc2)n1CC[C@@H](O)C[C@@H](O)CC(=O)O [Atorvastatin, (3R, 5R)-7-[2-(4-fluorophenyl)-3-phenyl-4-(phenylcarbamoyl)-5-(propan-2-yl)-1H-pyrrol-1-yl]-3,5-dihydroxyheptanoic acid]",occurrence of rhabdomyolysis,[1],3 per 100 000 person-years
